Results published in US20060134102A1, “Lymphotoxin beta receptor agents in combination with chemotherapeutic agents” (Biogen Idec MA Inc., priority 2002, published 2006).

Test system: KM-20L2 human colorectal adenocarcinoma
Assay: KM-20L2 xenograft model: growth of established KM-20L2 human colorectal tumors in athymic nude mice (tumor volume/weight, % T/C, Fa, Combination Index)
Format: in vivo

For Nc1ccn([C@@H]2O[C@H](CO)[C@@H](O)C2(F)F)c(=O)n1 [Gemcitabine, gemcitabine, reference compound], the “Mean Fraction Affected (Fa)” value (Gem 5 mg/kg, Day 9) was 0.097, the “Mean Fraction Affected/Fraction Unaffected (Fa/Fu)” value (Gem 5 mg/kg, Day 9) was 0.107 and the “Mean Tumor Volume” value (Gem 5 mg/kg, Day 9) was 101.0 cubic mm. For the same compound, the “Mean Tumor Volume Decrease” value (Gem 5 mg/kg, Day 9) was 10.8 cubic mm, the “Mean Fraction Affected (Fa)” value (Gem 5 mg/kg, Day 13) was 0.178 and the “Mean Fraction Affected/Fraction Unaffected (Fa/Fu)” value (Gem 5 mg/kg, Day 13) was 0.217. The “Mean Tumor Volume” value (Gem 5 mg/kg, Day 13) was 141.8 cubic mm, the “Mean Tumor Volume Decrease” value (Gem 5 mg/kg, Day 13) was 30.8 cubic mm and the “Mean Fraction Affected (Fa)” value (Gem 5 mg/kg, Day 16) was 0.230. The “Mean Fraction Affected/Fraction Unaffected (Fa/Fu)” value (Gem 5 mg/kg, Day 16) was 0.298, the “Mean Tumor Volume” value (Gem 5 mg/kg, Day 16) was 204.1 cubic mm and the “Mean Tumor Volume Decrease” value (Gem 5 mg/kg, Day 16) was 60.9 cubic mm. The “Mean Fraction Affected (Fa)” value (Gem 5 mg/kg, Day 20) was 0.310, the “Mean Fraction Affected/Fraction Unaffected (Fa/Fu)” value (Gem 5 mg/kg, Day 20) was 0.449 and the “Mean Tumor Volume” value (Gem 5 mg/kg, Day 20) was 276.8 cubic mm. For the same compound, the “Mean Tumor Volume Decrease” value (Gem 5 mg/kg, Day 20) was 124.2 cubic mm, the “Mean Fraction Affected (Fa)” value (Gem 5 mg/kg, Day 23) was 0.295 and the “Mean Fraction Affected/Fraction Unaffected (Fa/Fu)” value (Gem 5 mg/kg, Day 23) was 0.419. The “Mean Tumor Volume” value (Gem 5 mg/kg, Day 23) was 371.6 cubic mm, the “Mean Tumor Volume Decrease” value (Gem 5 mg/kg, Day 23) was 155.6 cubic mm and the “Mean Fraction Affected (Fa)” value (Gem 5 mg/kg, Day 27) was 0.242. The “Mean Fraction Affected/Fraction Unaffected (Fa/Fu)” value (Gem 5 mg/kg, Day 27) was 0.320, the “Mean Tumor Volume” value (Gem 5 mg/kg, Day 27) was 506.7 cubic mm and the “Mean Tumor Volume Decrease” value (Gem 5 mg/kg, Day 27) was 161.9 cubic mm. For the same compound, the “Mean Fraction Affected (Fa)” value (Gem 5 mg/kg, Day 30) was 0.245, the “Mean Fraction Affected/Fraction Unaffected (Fa/Fu)” value (Gem 5 mg/kg, Day 30) was 0.325 and the “Mean Tumor Volume” value (Gem 5 mg/kg, Day 30) was 616.2 cubic mm. For the same compound, the “Mean Tumor Volume Decrease” value (Gem 5 mg/kg, Day 30) was 200.0 cubic mm, the “Mean Fraction Affected (Fa)” value (Gem 5 mg/kg, Day 34) was 0.295 and the “Mean Fraction Affected/Fraction Unaffected (Fa/Fu)” value (Gem 5 mg/kg, Day 34) was 0.419. For the same compound, the “Mean Tumor Volume” value (Gem 5 mg/kg, Day 34) was 740.4 cubic mm, the “Mean Tumor Volume Decrease” value (Gem 5 mg/kg, Day 34) was 309.9 cubic mm and the “Mean Fraction Affected (Fa)” value (Gem 5 mg/kg, Day 37) was 0.274. The “Mean Fraction Affected/Fraction Unaffected (Fa/Fu)” value (Gem 5 mg/kg, Day 37) was 0.377, the “Mean Tumor Volume” value (Gem 5 mg/kg, Day 37) was 877.5 cubic mm and the “Mean Tumor Volume Decrease” value (Gem 5 mg/kg, Day 37) was 330.5 cubic mm. The “Mean Fraction Affected (Fa)” value (Gem 5 mg/kg, Day 41) was 0.253, the “Mean Fraction Affected/Fraction Unaffected (Fa/Fu)” value (Gem 5 mg/kg, Day 41) was 0.339 and the “Mean Tumor Volume” value (Gem 5 mg/kg, Day 41) was 1075.3 cubic mm. For the same compound, the “Mean Tumor Volume Decrease” value (Gem 5 mg/kg, Day 41) was 364.1 cubic mm, the “Mean Fraction Affected (Fa)” value (Gem 5 mg/kg, Day 43) was 0.226 and the “Mean Fraction Affected/Fraction Unaffected (Fa/Fu)” value (Gem 5 mg/kg, Day 43) was 0.291. For the same compound, the “Mean Tumor Volume” value (Gem 5 mg/kg, Day 43) was 1244.3 cubic mm, the “Mean Tumor Volume Decrease” value (Gem 5 mg/kg, Day 43) was 362.4 cubic mm and the “Mean Fraction Affected (Fa)” value (Gem 10 mg/kg, Day 9) was 0.084. For the same compound, the “Mean Fraction Affected/Fraction Unaffected (Fa/Fu)” value (Gem 10 mg/kg, Day 9) was 0.092, the “Mean Tumor Volume” value (Gem 10 mg/kg, Day 9) was 102.4 cubic mm and the “Mean Tumor Volume Decrease” value (Gem 10 mg/kg, Day 9) was 9.4 cubic mm. For the same compound, the “Mean Fraction Affected (Fa)” value (Gem 10 mg/kg, Day 13) was 0.184, the “Mean Fraction Affected/Fraction Unaffected (Fa/Fu)” value (Gem 10 mg/kg, Day 13) was 0.225 and the “Mean Tumor Volume” value (Gem 10 mg/kg, Day 13) was 140.9 cubic mm. For the same compound, the “Mean Tumor Volume Decrease” value (Gem 10 mg/kg, Day 13) was 31.7 cubic mm, the “Mean Fraction Affected (Fa)” value (Gem 10 mg/kg, Day 16) was 0.362 and the “Mean Fraction Affected/Fraction Unaffected (Fa/Fu)” value (Gem 10 mg/kg, Day 16) was 0.568. The “Mean Tumor Volume” value (Gem 10 mg/kg, Day 16) was 169.0 cubic mm, the “Mean Tumor Volume Decrease” value (Gem 10 mg/kg, Day 16) was 96.0 cubic mm and the “Mean Fraction Affected (Fa)” value (Gem 10 mg/kg, Day 20) was 0.422. For the same compound, the “Mean Fraction Affected/Fraction Unaffected (Fa/Fu)” value (Gem 10 mg/kg, Day 20) was 0.731, the “Mean Tumor Volume” value (Gem 10 mg/kg, Day 20) was 231.7 cubic mm and the “Mean Tumor Volume Decrease” value (Gem 10 mg/kg, Day 20) was 169.3 cubic mm. The “Mean Fraction Affected (Fa)” value (Gem 10 mg/kg, Day 23) was 0.410, the “Mean Fraction Affected/Fraction Unaffected (Fa/Fu)” value (Gem 10 mg/kg, Day 23) was 0.694 and the “Mean Tumor Volume” value (Gem 10 mg/kg, Day 23) was 311.2 cubic mm. The “Mean Tumor Volume Decrease” value (Gem 10 mg/kg, Day 23) was 216.0 cubic mm, the “Mean Fraction Affected (Fa)” value (Gem 10 mg/kg, Day 27) was 0.376 and the “Mean Fraction Affected/Fraction Unaffected (Fa/Fu)” value (Gem 10 mg/kg, Day 27) was 0.602. The “Mean Tumor Volume” value (Gem 10 mg/kg, Day 27) was 417.4 cubic mm, the “Mean Tumor Volume Decrease” value (Gem 10 mg/kg, Day 27) was 251.2 cubic mm and the “Mean Fraction Affected (Fa)” value (Gem 10 mg/kg, Day 30) was 0.388. The “Mean Fraction Affected/Fraction Unaffected (Fa/Fu)” value (Gem 10 mg/kg, Day 30) was 0.634, the “Mean Tumor Volume” value (Gem 10 mg/kg, Day 30) was 499.5 cubic mm and the “Mean Tumor Volume Decrease” value (Gem 10 mg/kg, Day 30) was 316.7 cubic mm. The “Mean Fraction Affected (Fa)” value (Gem 10 mg/kg, Day 34) was 0.388, the “Mean Fraction Affected/Fraction Unaffected (Fa/Fu)” value (Gem 10 mg/kg, Day 34) was 0.635 and the “Mean Tumor Volume” value (Gem 10 mg/kg, Day 34) was 642.3 cubic mm. The “Mean Tumor Volume Decrease” value (Gem 10 mg/kg, Day 34) was 408.0 cubic mm, the “Mean Fraction Affected (Fa)” value (Gem 10 mg/kg, Day 37) was 0.401 and the “Mean Fraction Affected/Fraction Unaffected (Fa/Fu)” value (Gem 10 mg/kg, Day 37) was 0.669.
